ChEMBL document CHEMBL3046726, “Cytotoxic and genotoxic potentials of newly synthesized antiviral aminopyrazoloquinoline derivatives” (Med Chem Res, 2008)

Tests used:
MCF-10A [1] = test: Induction of apoptosis in Homo sapiens (human) MCF10A cells at 100 uM after 72 hr by flow cytometry; format: cell-based
MCF7 [2] = test: Cell cycle arrest in Homo sapiens (human) MCF7 cells at 10 uM after 72 hr by flow cytometry; format: ADME, cell-based; details: mcf7, 72 h
MDA-MB-231 [3] = test: Cell cycle arrest in Homo sapiens (human) MDA-MB-231 cells at 10 uM after 72 hr by flow cytometry; format: ADME, cell-based; details: mda-mb-231, 72 h
MCF-12A [4] = test: Cell cycle arrest in Homo sapiens (human) MCF12A cells at 10 uM after 72 hr by flow cytometry; format: ADME, cell-based
MDA-MB-231 [5] = test: Induction of apoptosis in Homo sapiens (human) MDA-MB-231 cells at 10 uM after 72 hr by flow cytometry; format: cell-based; details: mda-mb-231, 72 h
MCF-12A [6] = test: Induction of apoptosis in Homo sapiens (human) MCF12A cells at 10 uM after 72 hr by flow cytometry; format: cell-based
MCF7 [7] = test: Induction of apoptosis in Homo sapiens (human) MCF7 cells at 10 uM after 72 hr by flow cytometry; format: cell-based; details: mcf7, 72 h
MDA-MB-231 [8] = test: Cytotoxicity against Homo sapiens (human) MDA-MB-231 cells at 10 uM after 72 hr; format: cell-based; details: mda-mb-231, 72 h
MCF-12A [9] = test: Cytotoxicity against Homo sapiens (human) MCF12A cells at 10 uM after 72 hr; format: cell-based
MCF7 [10] = test: Cytotoxicity against Homo sapiens (human) MCF7 cells at 10 uM after 72 hr; format: cell-based; details: mcf7, 72 h
MDA-MB-231 [11] = test: Cell cycle arrest in Homo sapiens (human) MDA-MB-231 cells assessed as accumulation at G2/M phase at 100 uM after 72 hr by flow cytometry; format: ADME, cell-based; details: mda-mb-231, 72 h
MCF7 [12] = test: Cell cycle arrest in Homo sapiens (human) MCF7 cells assessed as accumulation at G2/M phase at 100 uM after 72 hr by flow cytometry; format: ADME, cell-based; details: mcf7, 72 h
MCF-12A [13] = test: Cell cycle arrest in Homo sapiens (human) MCF12A cells assessed as accumulation at G2/M phase at 100 uM after 72 hr by flow cytometry; format: ADME, cell-based
MCF-10A [14] = test: Cell cycle arrest in Homo sapiens (human) MCF10A cells assessed as accumulation at G2/M phase at 100 uM after 72 hr by flow cytometry; format: ADME, cell-based
MDA-MB-231 [15] = test: Induction of apoptosis in Homo sapiens (human) MDA-MB-231 cells at 100 uM after 72 hr by flow cytometry; format: cell-based; details: mda-mb-231, 72 h
MCF7 [16] = test: Induction of apoptosis in Homo sapiens (human) MCF7 cells at 100 uM after 72 hr by flow cytometry; format: cell-based; details: mcf7, 72 h
MCF-12A [17] = test: Induction of apoptosis in Homo sapiens (human) MCF12A cells at 100 uM after 72 hr by flow cytometry; format: cell-based
MDA-MB-231 [18] = test: Cell cycle arrest in Homo sapiens (human) MDA-MB-231 cells assessed as accumulation at G2/M phase at 50 uM after 72 hr by flow cytometry; format: ADME, cell-based; details: mda-mb-231, 72 h
MCF7 [19] = test: Cell cycle arrest in Homo sapiens (human) MCF7 cells assessed as accumulation at G2/M phase at 50 uM after 72 hr by flow cytometry; format: ADME, cell-based; details: mcf7, 72 h
MCF-12A [20] = test: Cell cycle arrest in Homo sapiens (human) MCF12A cells assessed as accumulation at G2/M phase at 50 uM after 72 hr by flow cytometry; format: ADME, cell-based
MCF-10A [21] = test: Cell cycle arrest in Homo sapiens (human) MCF10A cells assessed as accumulation at G2/M phase at 50 uM after 72 hr by flow cytometry; format: ADME, cell-based
MDA-MB-231 [22] = test: Induction of apoptosis in Homo sapiens (human) MDA-MB-231 cells at 50 uM after 72 hr by flow cytometry; format: cell-based; details: mda-mb-231, 72 h
MCF7 [23] = test: Induction of apoptosis in Homo sapiens (human) MCF7 cells at 50 uM after 72 hr by flow cytometry; format: cell-based; details: mcf7, 72 h
MCF-12A [24] = test: Induction of apoptosis in Homo sapiens (human) MCF12A cells at 50 uM after 72 hr by flow cytometry; format: cell-based
MCF-10A [25] = test: Induction of apoptosis in Homo sapiens (human) MCF10A cells at 50 uM after 72 hr by flow cytometry; format: cell-based
MCF7 [26] = test: Induction of BP-DNA adduct formation in Homo sapiens (human) MCF7 cells at 100 uM after 24 hr by 32P-postlabeling technique relative to control; format: cell-based; details: mcf7, 24 h
MDA-MB-231 [27] = test: Genotoxicity in Homo sapiens (human) MDA-MB-231 cells assessed as reduction of BP-DNA adduct formation at 100 uM after 24 hr by 32P-postlabeling technique; format: toxicity, cell-based; design: scale not given: the % may be the effect or the level left; details: mda-mb-231, 24 h
MCF-12A [28] = test: Genotoxicity in Homo sapiens (human) MCF12A cells assessed as reduction of BP-DNA adduct formation at 100 uM after 24 hr by 32P-postlabeling technique; format: toxicity, cell-based; design: scale not given: the % may be the effect or the level left
MCF7 [29] = test: Cytotoxicity against Homo sapiens (human) MCF7 cells at 100 uM after 72 hr; format: cell-based; details: mcf7, 72 h
MCF-10A [30] = test: Cytotoxicity against Homo sapiens (human) MCF10A cells at 100 uM after 72 hr; format: cell-based
MCF-12A [31] = test: Cytotoxicity against Homo sapiens (human) MCF12A cells at 100 uM after 72 hr; format: cell-based
MDA-MB-231 [32] = test: Cytotoxicity against Homo sapiens (human) MDA-MB-231 cells at 50 uM after 72 hr; format: cell-based; details: mda-mb-231, 72 h
MCF7 [33] = test: Cytotoxicity against Homo sapiens (human) MCF7 cells at 50 uM after 72 hr; format: cell-based; details: mcf7, 72 h
MCF-10A [34] = test: Cytotoxicity against Homo sapiens (human) MCF10A cells at 50 uM after 72 hr; format: cell-based
MCF-12A [35] = test: Cytotoxicity against Homo sapiens (human) MCF12A cells at 50 uM after 72 hr; format: cell-based
MDA-MB-231 [36] = test: Cytotoxicity against Homo sapiens (human) MDA-MB-231 cells at 100 uM after 72 hr; format: cell-based; details: mda-mb-231, 72 h

Structure (SMILES) | Activity (MCF-10A [1]) | Activity (MCF7 [2]) | Activity (MDA-MB-231 [3]) | Activity (MCF-12A [4]) | Activity (MDA-MB-231 [5]) | Activity (MCF-12A [6]) | Activity (MCF7 [7]) | Activity (MDA-MB-231 [8]) | Activity (MCF-12A [9]) | Activity (MCF7 [10]) | Activity (MDA-MB-231 [11]) | Activity (MCF7 [12]) | Activity (MCF-12A [13]) | Activity (MCF-10A [14]) | Activity (MDA-MB-231 [15]) | Activity (MCF7 [16]) | Activity (MCF-12A [17]) | Activity (MDA-MB-231 [18]) | Activity (MCF-12A [20]) | Activity (MCF-10A [21]) | other results
Nc1[nH]nc2nc3ccccc3cc12 | Toxic | Non-toxic | Non-toxic | Non-toxic | Non-toxic | Non-toxic | Non-toxic | Non-toxic | Non-toxic | Non-toxic | Non-toxic | Non-toxic | Non-toxic | Non-toxic | Non-toxic | Non-toxic | Toxic |  |  |  | 
Cc1ccc2cc3c(N)[nH]nc3nc2c1 | Toxic | Non-toxic | Non-toxic | Non-toxic | Non-toxic | Non-toxic | Non-toxic | Non-toxic | Non-toxic | Non-toxic | Non-toxic | Non-toxic | Non-toxic | Non-toxic | Non-toxic | Non-toxic | Toxic | Non-toxic | Non-toxic | Non-toxic | Activity (MCF7 [19]): Non-toxic; Activity (MDA-MB-231 [22]): Non-toxic; Activity (MCF7 [23]): Non-toxic; Activity (MCF-12A [24]): Toxic; Activity (MCF-10A [25]): Toxic; fold change (FC) (MCF7 [26]): 3.5
COc1ccc2cc3c(N)n[nH]c3nc2c1 |  | Non-toxic | Non-toxic | Non-toxic | Non-toxic | Non-toxic | Non-toxic | Non-toxic | Non-toxic | Non-toxic |  |  |  |  | 80% | 15% |  | 35% | 20% | 20% | Activity (MCF7 [23]): 10%; Activity (MCF-12A [24]): 30%; Activity (MCF-10A [25]): 5%; fold change (FC) (MCF7 [26]): 2; Activity (MDA-MB-231 [27]): > 60%; Activity (MCF-12A [28]): 40%; Activity (MCF7 [29]): 50%; Activity (MCF-10A [30]): 90%; Activity (MCF-12A [31]): 90%; Activity (MDA-MB-231 [32]): 30%; Activity (MCF7 [33]): 30%; Activity (MCF-10A [34]): 20%; Activity (MCF-12A [35]): 20%
Nc1nc2c(ncn2COCCO)c(=O)[nH]1 [ACYCLOVIR] | Non-toxic | Non-toxic | Non-toxic | Non-toxic | Non-toxic | Non-toxic | Non-toxic | Non-toxic | Non-toxic | Non-toxic | Non-toxic | Non-toxic | Non-toxic | Non-toxic | Non-toxic | Non-toxic | Non-toxic | Non-toxic | Non-toxic | Non-toxic | Activity (MCF7 [19]): Non-toxic; Activity (MDA-MB-231 [22]): Non-toxic; Activity (MCF7 [23]): Non-toxic; Activity (MCF-12A [24]): Non-toxic; Activity (MCF-10A [25]): Non-toxic; Activity (MDA-MB-231 [36]): Non-toxic; Activity (MCF7 [29]): Non-toxic; Activity (MCF-10A [30]): Non-toxic; Activity (MCF-12A [31]): Non-toxic; Activity (MDA-MB-231 [32]): Non-toxic; Activity (MCF7 [33]): Non-toxic; Activity (MCF-10A [34]): Non-toxic; Activity (MCF-12A [35]): Non-toxic
